Measurements: ChEMBL document CHEMBL4177586, “Small molecule adjuvants that suppress both chromosomal and mcr-1 encoded colistin-resistance and amplify colistin efficacy in polymyxin-susceptible bacteria” (Bioorg Med Chem, 2017)
In brackets after ≈: the same amount, converted by molar mass.

Assays:
Acinetobacter baumannii [1] = assay: Potentiation of colistin-induced antimicrobial activity against Acinetobacter baumannii SM1536 assessed as reduction in colistin MIC at 30 uM incubated for overnight duration by CLSI based method relative to colistin alone control; format: functional
Acinetobacter baumannii [2] = assay: Potentiation of colistin-induced antimicrobial activity against Acinetobacter baumannii ATCC 17978 expressing mcr1 gene assessed as colistin MIC at 30 uM incubated for overnight duration by CLSI based method (reference value: 16 ug/ml); format: functional
Klebsiella pneumoniae [3] = assay: Toxicity against Klebsiella pneumoniae 2210291 incubated for overnight duration by CLSI based method; format: organism-based; conditions: in vivo
Acinetobacter baumannii [4] = assay: Potentiation of colistin-induced antimicrobial activity against Acinetobacter baumannii ATCC 17978 assessed as colistin MIC at 30 uM incubated for overnight duration by CLSI based method (reference value: 2 ug/ml); format: functional
Acinetobacter baumannii [5] = assay: Toxicity against Acinetobacter baumannii SM1536 incubated for overnight duration by CLSI based method; format: organism-based; conditions: in vivo
Escherichia coli [6] = assay: Toxicity against Escherichia coli YD626 incubated for overnight duration by CLSI based method; format: organism-based; conditions: in vivo
Escherichia coli [7] = assay: Potentiation of colistin-induced antimicrobial activity against Escherichia coli ATCC 25922 assessed as reduction in colistin MIC at 30 uM incubated for overnight duration by CLSI based method relative to colistin alone control; format: functional
Acinetobacter baumannii [8] = assay: Potentiation of colistin-induced antimicrobial activity against Acinetobacter baumannii SM1536 assessed as colistin MIC at 30 uM incubated for overnight duration by CLSI based method (reference value: 2 ug/ml); format: functional
Klebsiella pneumoniae [9] = assay: Potentiation of colistin-induced antimicrobial activity against Klebsiella pneumoniae 2210291 assessed as reduction in colistin MIC at 30 uM incubated for overnight duration by CLSI based method relative to colistin alone control; format: functional
Escherichia coli [10] = assay: Potentiation of colistin-induced antimicrobial activity against Escherichia coli ATCC 25922 expressing mcr1 gene assessed as colistin MIC at 15 uM incubated for overnight duration by CLSI based method (reference value: 8 ug/ml); format: functional
Acinetobacter baumannii [11] = assay: Potentiation of colistin-induced antimicrobial activity against Acinetobacter baumannii ATCC 17978 expressing mcr1 gene assessed as reduction in colistin MIC at 15 uM incubated for overnight duration by CLSI based method relative to colistin alone control; format: functional
Klebsiella pneumoniae [12] = assay: Potentiation of colistin-induced antimicrobial activity against multidrug resistant Klebsiella pneumoniae BAA2146 assessed as minimum drug concentration needed to cause colsitin MIC of 0.125 ug/ml incubated for overnight duration by CLSI based method; format: functional
Escherichia coli [13] = assay: Potentiation of colistin-induced antimicrobial activity against Escherichia coli YD626 assessed as colistin MIC at 30 uM incubated for overnight duration by CLSI based method (reference value: 1 ug/ml); format: functional
Acinetobacter baumannii [14] = assay: Potentiation of colistin-induced antimicrobial activity against multidrug resistant Acinetobacter baumannii BAA1605 assessed as minimum drug concentration needed to cause colsitin MIC of 0.125 ug/ml incubated for overnight duration by CLSI based method; format: functional
Acinetobacter baumannii [15] = assay: Potentiation of colistin-induced antimicrobial activity against Acinetobacter baumannii SM1536 expressing mcr1 gene assessed as colistin MIC at 30 uM incubated for overnight duration by CLSI based method (reference value: 64 ug/ml); format: functional
Escherichia coli [16] = assay: Potentiation of colistin-induced antimicrobial activity against Escherichia coli YD626 expressing mcr1 gene assessed as colistin MIC at 15 uM incubated for overnight duration by CLSI based method (reference value: 4 ug/ml); format: functional
Acinetobacter baumannii [17] = assay: Potentiation of colistin-induced antimicrobial activity against multidrug resistant Acinetobacter baumannii 5075 assessed as minimum drug concentration needed to cause colsitin MIC of 0.125 ug/ml incubated for overnight duration by CLSI based method; format: functional
Escherichia coli [18] = assay: Toxicity against Escherichia coli ATCC 25922 incubated for overnight duration by CLSI based method; format: organism-based; conditions: in vivo
Klebsiella pneumoniae [19] = assay: Potentiation of colistin-induced antimicrobial activity against Klebsiella pneumoniae 2210291 assessed as colistin MIC at 30 uM incubated for overnight duration by CLSI based method (reference value: 1 ug/ml); format: functional
Klebsiella pneumoniae [20] = assay: Potentiation of colistin-induced antimicrobial activity against Klebsiella pneumoniae 2210291 expressing mcr1 gene assessed as colistin MIC at 30 uM incubated for overnight duration by CLSI based method (reference value: 16 ug/ml); format: functional
Escherichia coli [21] = assay: Potentiation of colistin-induced antimicrobial activity against Escherichia coli YD626 expressing mcr1 gene assessed as reduction in colistin MIC at 30 uM incubated for overnight duration by CLSI based method relative to colistin alone control; format: functional
Acinetobacter baumannii [22] = assay: Potentiation of colistin-induced antimicrobial activity against Acinetobacter baumannii SM1536 expressing mcr1 gene assessed as reduction in colistin MIC at 30 uM incubated for overnight duration by CLSI based method relative to colistin alone control; format: functional
Escherichia coli [23] = assay: Potentiation of colistin-induced antimicrobial activity against Escherichia coli ATCC 25922 expressing mcr1 gene assessed as reduction in colistin MIC at 30 uM incubated for overnight duration by CLSI based method relative to colistin alone control; format: functional
Escherichia coli [24] = assay: Potentiation of colistin-induced antimicrobial activity against Escherichia coli YD626 expressing mcr1 gene assessed as reduction in colistin MIC at 15 uM incubated for overnight duration by CLSI based method relative to colistin alone control; format: functional
Klebsiella pneumoniae [25] = assay: Potentiation of colistin-induced antimicrobial activity against Klebsiella pneumoniae 2210291 expressing mcr1 gene assessed as reduction in colistin MIC at 15 uM incubated for overnight duration by CLSI based method relative to colistin alone control; format: functional
Klebsiella pneumoniae [26] = assay: Potentiation of colistin-induced antimicrobial activity against Klebsiella pneumoniae 2210291 expressing mcr1 gene assessed as colistin MIC at 15 uM incubated for overnight duration by CLSI based method (reference value: 16 ug/ml); format: functional
Escherichia coli [27] = assay: Potentiation of colistin-induced antimicrobial activity against Escherichia coli ATCC 25922 assessed as colistin MIC at 30 uM incubated for overnight duration by CLSI based method (reference value: […]); format: functional
Escherichia coli [28] = assay: Potentiation of colistin-induced antimicrobial activity against Escherichia coli YD626 expressing mcr1 gene assessed as colistin MIC at 30 uM incubated for overnight duration by CLSI based method (reference value: 4 ug/ml); format: functional
Acinetobacter baumannii [29] = assay: Potentiation of colistin-induced antimicrobial activity against Acinetobacter baumannii SM1536 expressing mcr1 gene assessed as reduction in colistin MIC at 15 uM incubated for overnight duration by CLSI based method relative to colistin alone control; format: functional
Escherichia coli [30] = assay: Potentiation of colistin-induced antimicrobial activity against Escherichia coli ATCC 25922 expressing mcr1 gene assessed as colistin MIC at 30 uM incubated for overnight duration by CLSI based method (reference value: 8 ug/ml); format: functional
Escherichia coli [31] = assay: Potentiation of colistin-induced antimicrobial activity against Escherichia coli ATCC 25922 expressing mcr1 gene assessed as reduction in colistin MIC at 15 uM incubated for overnight duration by CLSI based method relative to colistin alone control; format: functional
Klebsiella pneumoniae [32] = assay: Toxicity against Klebsiella pneumoniae BAA2146 incubated for overnight duration by CLSI based method; format: organism-based; conditions: in vivo
Klebsiella pneumoniae [33] = assay: Potentiation of colistin-induced antimicrobial activity against Klebsiella pneumoniae 2210291 expressing mcr1 gene assessed as reduction in colistin MIC at 30 uM incubated for overnight duration by CLSI based method relative to colistin alone control; format: functional

| SMILES | fold change (FC) (Acinetobacter baumannii [1]) | MIC (Acinetobacter baumannii [2]) | MIC (Klebsiella pneumoniae [3]) | MIC (Acinetobacter baumannii [4]) | MIC (Acinetobacter baumannii [5]) | MIC (Escherichia coli [6]) | fold change (FC) (Escherichia coli [7]) | MIC (Acinetobacter baumannii [8]) | fold change (FC) (Klebsiella pneumoniae [9]) | MIC (Escherichia coli [10]) | fold change (FC) (Acinetobacter baumannii [11]) | MIC (Klebsiella pneumoniae [12]) | MIC (Escherichia coli [13]) | MIC (Acinetobacter baumannii [14]) | MIC (Acinetobacter baumannii [15]) | MIC (Escherichia coli [16]) | MIC (Acinetobacter baumannii [17]) | MIC (Escherichia coli [18]) | MIC (Klebsiella pneumoniae [19]) | MIC (Klebsiella pneumoniae [20]) | other results |
| --- | --- | --- | --- | --- | --- | --- | --- | --- | --- | --- | --- | --- | --- | --- | --- | --- | --- | --- | --- | --- | --- |
| CCCCCCc1ccc(-c2cn(CC)c(N)n2)cc1 | 256 | 0.5 µg/mL | > 200 µM | 0.0039 µg/mL | 100 µM (≈ 27.1 µg/mL) | 200 µM (≈ 54.3 µg/mL) | 2048 | 0.0078 µg/mL | 32 | 4 µg/mL | 4 | 15 µM | 0.00049 µg/mL | 15 µM | 0.25 µg/mL | 0.5 µg/mL | 15 µM | 200 µM (≈ 54.3 µg/mL) | 0.031 µg/mL | 0.125 µg/mL | fold change (FC) (Escherichia coli [21]): >2048; fold change (FC) (Acinetobacter baumannii [22]): 256; fold change (FC) (Escherichia coli [23]): >2048; fold change (FC) (Escherichia coli [24]): 8; fold change (FC) (Klebsiella pneumoniae [25]): 4; MIC (Klebsiella pneumoniae [26]): 4 µg/mL; MIC (Escherichia coli [27]): 0.00098 µg/mL; MIC (Escherichia coli [28]): < 0.0019 µg/mL; fold change (FC) (Acinetobacter baumannii [29]): 8; MIC (Escherichia coli [30]): < 0.0039 µg/mL; fold change (FC) (Escherichia coli [31]): 2; MIC (Klebsiella pneumoniae [32]): > 200 µM; fold change (FC) (Klebsiella pneumoniae [33]): 128 |
| CCCCCCc1ccc(-c2cn(C(C)C)c(N)n2)cc1 | 128 | 0.5 µg/mL | 200 µM (≈ 57.1 µg/mL) | 0.016 µg/mL | 200 µM (≈ 57.1 µg/mL) | 200 µM (≈ 57.1 µg/mL) | 256 | 0.016 µg/mL | 64 | 8 µg/mL | 4 | 20 µM | 0.00049 µg/mL | 25 µM | 1 µg/mL | 2 µg/mL | 20 µM | 200 µM (≈ 57.1 µg/mL) | 0.031 µg/mL | 0.5 µg/mL | fold change (FC) (Escherichia coli [21]): 256; fold change (FC) (Acinetobacter baumannii [22]): 64; fold change (FC) (Escherichia coli [23]): 512; fold change (FC) (Escherichia coli [24]): 2; fold change (FC) (Klebsiella pneumoniae [25]): 2; MIC (Klebsiella pneumoniae [26]): 8 µg/mL; MIC (Escherichia coli [27]): 0.0039 µg/mL; MIC (Escherichia coli [28]): 0.016 µg/mL; fold change (FC) (Acinetobacter baumannii [29]): 4; MIC (Escherichia coli [30]): 0.016 µg/mL; fold change (FC) (Escherichia coli [31]): 0; MIC (Klebsiella pneumoniae [32]): > 200 µM; fold change (FC) (Klebsiella pneumoniae [33]): 32 |
| CCCCCc1ccc(C(=O)NCCn2cc(CCCCCc3cnc(N)n3Cc3ccc(CCCC)cc3)nn2)cc1 | >2048 | 0.5 µg/mL | > 200 µM | < 0.00098 µg/mL | > 200 µM | > 200 µM | >2048 | < 0.00098 µg/mL | 64 | 0.5 µg/mL | 8 | 10 µM | < 0.00049 µg/mL | 5 µM | 2 µg/mL | 0.063 µg/mL | 10 µM | > 200 µM | 0.016 µg/mL | 0.25 µg/mL | fold change (FC) (Escherichia coli [21]): >2048; fold change (FC) (Acinetobacter baumannii [22]): 32; fold change (FC) (Escherichia coli [23]): 32; fold change (FC) (Escherichia coli [24]): 64; fold change (FC) (Klebsiella pneumoniae [25]): 16; MIC (Klebsiella pneumoniae [26]): 1 µg/mL; MIC (Escherichia coli [27]): < 0.00049 µg/mL; MIC (Escherichia coli [28]): < 0.002 µg/mL; fold change (FC) (Acinetobacter baumannii [29]): 8; MIC (Escherichia coli [30]): 0.25 µg/mL; fold change (FC) (Escherichia coli [31]): 16; MIC (Klebsiella pneumoniae [32]): > 200 µM; fold change (FC) (Klebsiella pneumoniae [33]): 64 |
